The source of these data is US8642640B2, “1-phenylpyrrole derivatives” (Exelixis, Inc., priority 2008, dated 2014).

Bounds are passed on as bounds.

This assay concerns the target T1, human mineralocorticoid receptor (hMR) (Homo sapiens, UniProt P08235).
T1 construct: expressed in transfected cells; host or cells: HEK293
T1 sequence (P08235 726-964 limits assumed): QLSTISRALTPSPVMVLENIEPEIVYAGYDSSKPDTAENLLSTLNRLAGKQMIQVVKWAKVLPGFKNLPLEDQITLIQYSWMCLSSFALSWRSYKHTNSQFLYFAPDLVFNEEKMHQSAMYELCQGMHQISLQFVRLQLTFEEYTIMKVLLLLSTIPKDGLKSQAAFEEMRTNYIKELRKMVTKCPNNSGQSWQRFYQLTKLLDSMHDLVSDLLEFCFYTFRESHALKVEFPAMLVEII
Kind of assay: GAL4-hMR-LBD luciferase reporter assay in HEK293 cells with 1 nM aldosterone (Test Example 1).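 For Imax: 0% is DMSO-only control and 100% is 1 nM aldosterone alone.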 Particulars: for IC50: concentration showing Imax/2, HEK293, GAL4-hMR-LBD, 1 nM aldosterone, overnight, read-out: ICmax50; for Emax: HEK293, read-out: Imax. The assay is classed as cell-based. On the procedure:
A plasmid pM-hMR-LBD expressing GAL4-hMR receptor, which has a ligand binding domain (LBD, corresponding to approximately 308 amino acids at the carboxy terminus) of human mineralocorticoid receptor (hMR, NM_000901) bonded to a DNA binding domain of yeast transcription factor GAL4 (corresponding to 147 amino acids at the amino terminus), was prepared. Reporter assay was conducted by using a reporter plasmid (such as plasmid pFR-Luc of […] CLONING SYSTEMS) including a luciferase gene, having a sequence (UAS sequence) which binds to the DNA binding domain of GAL4.
The plasmid pM-hMR-LBD and the reporter plasmid as obtained above were gene transferred into renal cell line HEK293 of human fetus by lipofection. On the next day, cells were collected by trypsin treatment, and dispensed with DMEM culture medium containing 5% of FBS treated by activated charcoal, to a white 96-well plate (Costar) with the amount of 95 microliter per well.
The test compounds were used as dissolved in dimethyl sulfoxide at a predetermined concentration, and the test compounds suitably diluted with culture media were added to the cells on the white 96-well plate so that the final concentration becomes 0.1%. […] After the addition, cultivation was carried out overnight.
On the next day, the culture media was removed, and then luciferase substrate (Wako Pure Chemical Industries, Ltd.) was prepared in accordance with the attached document and were added to each well by 50 microliters. Stirring was conducted for approximately 30 minutes, and the amount of luminescence was measured for each well by using Analyst (Molecular Devices), to obtain luciferase activity. A graph which plots relative luciferase activity values, when the luciferase activity value of Control group 1 was taken as 0% and the luciferase activity value of Control group 2 was taken as 100%, for each of the amount of the test compound addition group was made.

Take `Cc1c(C(=O)Nc2ccc(S(C)(=O)=O)cc2)cc(CCF)n1-c1ccc(F)cc1OC(F)F` (single isomer, unassigned) [Example 54 - isomer B, 1-[2-(Difluoromethoxy)-4-fluorophenyl]-5-(2-fluoroethyl)-2-methyl-N-[4-(methylsulfonyl)phenyl]-1H-pyrrole-3-carboxamide]: the IC50 is over 1000 nM. Turning to `Cc1cc(NC(=O)c2cc(C[C@H](C)O)n(-c3ccc(F)cc3OC(F)F)c2C)ccc1S(C)(=O)=O` (single isomer, unassigned) [Example 22 - isomer A], the Emax came to 99% and the IC50 is 6.1 nM. Regarding `Cc1c(C(=O)Nc2ccc(S(N)(=O)=O)c(Cl)c2)cc(C[C@H](C)O)n1-c1ccc(F)cc1Cl` (single isomer, unassigned) [Example 49 - isomer A], the IC50 was over 1000 nM. Regarding `Cc1c(C(=O)Nc2ccc(S(C)(=O)=O)cc2)cc(CCO)n1-c1ccc(Cl)cc1C(F)(F)F` (single isomer, unassigned) [Example 1 - isomer B, 1-[4-Chloro-2-(trifluoromethyl)phenyl]-5-(2-hydroxyethyl)-2-methyl-N-[4-(methylsulfonyl)phenyl]-1H-pyrrole-3-carboxamide], the IC50 was over 1000 nM. On to `Cc1c(C(=O)Nc2ccc(S(N)(=O)=O)c(Cl)c2)cc(C[C@H](C)O)n1-c1ccc(F)cc1Cl` [Example 49, N-[4-(Aminosulfonyl)-3-chlorophenyl]-1-(2-chloro-4-fluorophenyl)-5-[(2S)-2-hydroxypropyl]-2-methyl-1H-pyrrole-3-carboxamide], for which the Emax worked out at 96% and the IC50 was 8.3 nM.

In the case of `Cc1c(C(=O)Nc2ccc(S(C)(=O)=O)cc2)cc(C[C@H](C)O)n1-c1ccc(Cl)cc1OC(F)(F)F` [Example 42, 1-[4-Chloro-2-(trifluoromethoxy)phenyl]-5-[(2S)-2-hydroxypropyl]-2-methyl-N-[4-(methylsulfonyl)phenyl]-1H-pyrrole-3-carboxamide], the Emax was 110% and the IC50 was 4.8 nM. The like results for `Cc1c(C(=O)Nc2ccc(S(N)(=O)=O)c(Cl)c2)cc(C[C@H](C)O)n1-c1ccc(F)cc1Cl` (single isomer, unassigned) [Example 49 - isomer B] were, in that order, 104% and 4.5 nM.

As for `Cc1c(C(=O)Nc2ccc(S(C)(=O)=O)cc2)cc(C[C@H](C)O)n1-c1ccc(F)cc1Cl` (single isomer, unassigned) [Example 40 - isomer B], the IC50 is over 1000 nM.

On to `Cc1c(C(=O)Nc2ccc(S(C)(=O)=O)cc2)cc(C[C@H](C)O)n1-c1ccc(Cl)cc1OC(F)F` (single isomer, unassigned) [Example 11 - isomer B], for which the IC50 was over 1000 nM. As for `Cc1c(C(=O)Nc2ccc(S(C)(=O)=O)cc2)cc(C[C@H](C)O)n1-c1ccc(F)cc1C(F)(F)F` [Example 5, 1-[4-Fluoro-2-(trifluoromethyl)phenyl]-5-[(2S)-2-hydroxypropyl]-2-methyl-N-[4-(methylsulfonyl)phenyl]-1H-pyrrole-3-carboxamide], the Emax is 125% and the IC50 came out at 3.9 nM. The like results for `Cc1c(C(=O)Nc2ccc(S(N)(=O)=O)c(Cl)c2)cc(C[C@H](C)O)n1-c1ccc(F)cc1C(F)(F)F` [Example 12, N-[4-(Aminosulfonyl)-3-chlorophenyl]-1-[4-fluoro-2-(trifluoromethyl)phenyl]-5-[(2S)-2-hydroxypropyl]-2-methyl-1H-pyrrole-3-carboxamide] were, in that order, 108% and 6.8 nM. Regarding `Cc1cc(NC(=O)c2cc(C[C@H](C)O)n(-c3ccc(F)cc3OC(F)F)c2C)ccc1S(C)(=O)=O` (single isomer, unassigned) [Example 22 - isomer B], the IC50 was over 1000 nM. Take `Cc1c(C(=O)Nc2ccc(S(C)(=O)=O)cc2)cc(C[C@H](C)O)n1-c1ccc(F)cc1Cl` [Example 40, 1-(2-Chloro-4-fluorophenyl)-5-[(2S)-2-hydroxypropyl]-2-methyl-N-[4-(methylsulfonyl)phenyl]-1H-pyrrole-3-carboxamide]: the Emax turned out to be 112% and the IC50 amounted to 26 nM. Consider `Cc1c(C(=O)Nc2ccc(S(C)(=O)=O)cc2)cc(C[C@H](C)O)n1-c1ccc(Cl)cc1OC(F)(F)F` (single isomer, unassigned) [Example 42 - isomer A], for which the IC50 is over 1000 nM. With `Cc1c(C(=O)Nc2ccc(S(C)(=O)=O)cc2)cc(C[C@H](C)O)n1-c1ccc(Cl)cc1Cl` (single isomer, unassigned) [Example 43 - isomer B], the IC50 is over 1000 nM.

With `Cc1c(C(=O)Nc2ccc(S(C)(=O)=O)cc2)cc(C[C@H](C)O)n1-c1ccc(Cl)cc1Cl` [Example 43, 1-(2,4-Dichlorophenyl)-5-[(2S)-2-hydroxypropyl]-2-methyl-N-[4-(methylsulfonyl)phenyl]-1H-pyrrole-3-carboxamide], the Emax was 100% and the IC50 is 40 nM.

For `Cc1cc(NC(=O)c2cc(C[C@H](C)O)n(-c3ccc(F)cc3OC(F)F)c2C)ccc1S(C)(=O)=O` [Example 22, 1-[2-(Difluoromethoxy)-4-fluorophenyl]-5-[(2S)-2-hydroxypropyl]-2-methyl-N-[3-methyl-4-(methylsulfonyl)phenyl]-1H-pyrrole-3-carboxamide], the Emax was 111% and the IC50 was 9.1 nM. In the same order, the values of `Cc1c(C(=O)Nc2ccc(S(C)(=O)=O)cc2)cc(C[C@H](C)O)n1-c1ccc(F)cc1OC(F)(F)F` [Example 16, 1-[4-Fluoro-2-(trifluoromethoxy)phenyl]-5-[(2S)-2-hydroxypropyl]-2-methyl-N-[4-(methylsulfonyl)phenyl]-1H-pyrrole-3-carboxamide] are 94% and 7.8 nM. Take `Cc1c(C(=O)Nc2ccc(S(N)(=O)=O)c(Cl)c2)cc(C[C@H](C)O)n1-c1ccc(F)cc1C(F)(F)F` (single isomer, unassigned) [Example 12 - isomer A]: the Emax came out at 113% and the IC50 was 3.1 nM. In the same order, the values of `CCc1c(C(=O)Nc2ccc(S(C)(=O)=O)cc2)cc(C[C@H](C)O)n1-c1ccc(F)cc1Cl` [Example 44, 1-(2-Chloro-4-fluorophenyl)-2-ethyl-5-[(2S)-2-hydroxypropyl]-N-[4-(methylsulfonyl)phenyl]-1H-pyrrole-3-carboxamide] are 111% and 24 nM. The like results for `Cc1cc(Cl)ccc1-n1c(CCF)cc(C(=O)Nc2ccc(S(C)(=O)=O)cc2)c1C` [Example 51, 1-(4-Chloro-2-methylphenyl)-5-(2-fluoroethyl)-2-methyl-N-[4-(methylsulfonyl)phenyl]-1H-pyrrole-3-carboxamide] were, in that order, 115% and 19 nM. In the case of `Cc1c(C(=O)Nc2ccc(S(C)(=O)=O)cc2)cc(C[C@H](C)O)n1-c1ccc(Cl)cc1Oc1ccc(F)cc1` (single isomer, unassigned) [Example 45 - isomer B], the IC50 was over 1000 nM.

Turning to `Cc1c(C(=O)Nc2ccc(S(C)(=O)=O)cc2)cc(C[C@H](C)O)n1-c1ccc(F)cc1OC(F)(F)F` (single isomer, unassigned) [Example 16 - isomer B], the IC50 is over 1000 nM. The same measure, in the same setting: for `Cc1cc(Cl)ccc1-n1c(CCF)cc(C(=O)Nc2ccc(S(C)(=O)=O)cc2)c1C` (single isomer, unassigned) [Example 51 - isomer B, 1-(4-Chloro-2-methylphenyl)-5-(2-fluoroethyl)-2-methyl-N-[4-(methylsulfonyl)phenyl]-1H-pyrrole-3-carboxamide] the value was over 1000 nM. For the molecule `Cc1c(C(=O)Nc2ccc(S(C)(=O)=O)cc2)cc(C[C@H](C)O)n1-c1ccc(Cl)cc1Oc1ccc(F)cc1` [Example 45, 1-[4-Chloro-2-(4-fluorophenoxy)phenyl]-5-[(2S)-2-hydroxypropyl]-2-methyl-N-[4-(methylsulfonyl)phenyl]-1H-pyrrole-3-carboxamide], the Emax turned out to be 85% and the IC50 stood at 7.1 nM. For `Cc1c(C(=O)Nc2ccc(S(C)(=O)=O)cc2)cc(C[C@H](C)O)n1-c1ccc(Cl)cc1C(F)(F)F` (single isomer, unassigned) [Example 6 - isomer B], the IC50 is over 1000 nM. `CCc1c(C(=O)Nc2ccc(S(C)(=O)=O)cc2)cc(C[C@H](C)O)n1-c1ccc(F)cc1Cl` (single isomer, unassigned) [Example 44 - isomer A]: the IC50 was over 1000 nM. As for `Cc1c(C(=O)Nc2ccc(S(C)(=O)=O)cc2)cc(C[C@H](C)O)n1-c1ccc(Cl)cc1Oc1ccc(F)cc1` (single isomer, unassigned) [Example 45 - isomer A], the Emax came to 105% and the IC50 is 1.9 nM.
